The test system of one experiment is Mus musculus. Description: In vivo analgesic activity in hot plate test after subcutaneous administration in mice. It is filed as functional. Particulars: sc. A general note: In hot-plate and tail-flick tests a longer latency is read as antinociception; call rule not given here.
Another experiment deals with Mu-type opioid receptor (Rattus norvegicus, UniProt P33535). Put plainly: Inhibition of [3H]dihydromorphine (1 nM) binding to mu opioid receptor of rat brain homogenate.
Sequence of Mu-type opioid receptor (P33535 whole entry): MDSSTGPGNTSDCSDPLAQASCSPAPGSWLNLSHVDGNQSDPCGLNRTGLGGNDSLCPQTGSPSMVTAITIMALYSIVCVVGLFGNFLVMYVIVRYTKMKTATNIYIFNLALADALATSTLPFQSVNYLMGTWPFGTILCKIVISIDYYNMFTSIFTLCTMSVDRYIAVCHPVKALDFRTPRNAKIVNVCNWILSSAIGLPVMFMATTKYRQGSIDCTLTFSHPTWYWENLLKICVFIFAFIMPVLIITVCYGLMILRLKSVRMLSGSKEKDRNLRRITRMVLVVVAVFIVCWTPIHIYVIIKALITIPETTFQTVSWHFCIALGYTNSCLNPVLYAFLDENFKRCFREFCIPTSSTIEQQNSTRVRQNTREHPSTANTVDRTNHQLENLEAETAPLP
Experiment [1] has as its target T1, Delta-type opioid receptor (Rattus norvegicus, UniProt P33533). Put plainly: Inhibition of [3H]-[D-Pen2, D-Pen5]-enkephalin (2 nM) to Opioid receptor delta 1 of male Sprague-Dawley rat brain homogenate.
Experiment [2] has as its target T2, Kappa-type opioid receptor (Rattus norvegicus, UniProt P34975). Description: […] to Opioid receptor kappa 1 of rat brain homogenate; Not detectable. In kind it is tissue-based.
For experiment [3], the target named is T2, Kappa-type opioid receptor. Description: Inhibition of 9 (2 nM) binding to Opioid receptor kappa 1 of rat brain homogenate. In kind it is tissue-based.
Experiment [4] concerns the target T1, Delta-type opioid receptor. Description: Inhibition of [3H]-[D-Pen2, D-Pen5]-enkephalin (2 nM) to Opioid receptor delta 1 of male Sprague-Dawley rat brain homogenate; Not detectable.

What is called ED50 is the dose at which the effect has come halfway, by size or by number of responders. High values mean a need for a large dose, low ones an effect at a small dose. For orientation: Ki means the dissociation constant of the complex between target and ligand, obtained from inhibition or displacement. Lower therefore signals higher affinity.

T1 sequence (P33533 whole entry): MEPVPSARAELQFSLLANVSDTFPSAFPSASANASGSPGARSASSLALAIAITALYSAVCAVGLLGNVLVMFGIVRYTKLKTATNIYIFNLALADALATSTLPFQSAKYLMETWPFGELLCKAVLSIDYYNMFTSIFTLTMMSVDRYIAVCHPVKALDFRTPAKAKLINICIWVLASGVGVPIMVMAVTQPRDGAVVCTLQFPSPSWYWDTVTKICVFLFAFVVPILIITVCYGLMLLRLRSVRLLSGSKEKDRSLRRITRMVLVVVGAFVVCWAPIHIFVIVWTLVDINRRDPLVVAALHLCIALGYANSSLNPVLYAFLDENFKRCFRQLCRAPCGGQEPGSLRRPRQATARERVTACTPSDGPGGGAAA
T2 sequence (P34975 whole entry): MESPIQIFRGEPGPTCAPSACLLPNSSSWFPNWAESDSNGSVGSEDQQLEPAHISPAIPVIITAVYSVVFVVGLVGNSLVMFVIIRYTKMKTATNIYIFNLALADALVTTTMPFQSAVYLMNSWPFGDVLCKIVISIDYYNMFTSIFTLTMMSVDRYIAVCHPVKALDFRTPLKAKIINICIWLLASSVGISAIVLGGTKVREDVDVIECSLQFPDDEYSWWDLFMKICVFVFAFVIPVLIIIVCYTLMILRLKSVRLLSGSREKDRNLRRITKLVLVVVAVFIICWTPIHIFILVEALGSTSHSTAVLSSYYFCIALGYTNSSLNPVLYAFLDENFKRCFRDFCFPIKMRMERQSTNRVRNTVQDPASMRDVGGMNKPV

Regarding `CC[C@@H](C)N(C[C@H](O)[C@@H]1CCC(=O)N1Cc1ccccc1Cl)[C@@H](C)CC`, the ED50 with Mus musculus is 1.5 mg/kg. Moreover, the Ki at Mu-type opioid receptor was 32 nM; in experiment [1], above 5000 nM; in experiment [2] it was “Not Active”.
Regarding `CC[C@@H](C)N(C[C@H](O)[C@H]1CCC(=O)N1Cc1ccccc1Cl)[C@H](C)CC`, in the experiment with Mus musculus, it took a dose of 10.4 mg/kg to reach the 50% effect level (ED50). In addition, the Ki at Mu-type opioid receptor was 100 nM; in experiment [1], 1850 nM; in experiment [3] it was above 5000 nM.
For `CC[C@@H](C)N(C[C@H](O)[C@@H]1CCC(=O)N1Cc1ccccc1Cl)[C@H](C)CC`, in that order: 0.01 mg/kg, 0.25 nM, 265 nM and 62.5 nM.
For `CC[C@H](C)N(C[C@H](O)[C@H]1CCC(=O)N1Cc1ccccc1Cl)[C@@H](C)CC`, in that order: above 100 mg/kg, above 5000 nM, above 5000 nM and 270 nM.
For `CC[C@@H](C)N(C[C@@H](O)[C@H]1CCC(=O)N1Cc1ccccc1Cl)[C@@H](C)CC`, in that order: 14.3 mg/kg, 87 nM, 1780 nM and 260 nM.
`CC[C@H](C)N(C[C@@H](O)[C@@H]1CCC(=O)N1Cc1ccccc1Cl)[C@@H](C)CC`: in the experiment with Mus musculus, the ED50 was above 100 mg/kg. Besides, the Ki on Mu-type opioid receptor is 145 nM; in experiment [1], above 5000 nM; in experiment [3], above 5000 nM.
Regarding `CC[C@H](C)N(C[C@H](O)[C@@H]1CCC(=O)N1Cc1ccccc1Cl)[C@@H](C)CC`, the ED50 with Mus musculus was above 100 mg/kg. In addition, the Ki at Mu-type opioid receptor is 2250 nM; in experiment [1], above 5000 nM; in experiment [3], above 5000 nM.
In turn, `CC[C@@H](C)N(C[C@@H](O)[C@H]1CCC(=O)N1Cc1ccccc1Cl)[C@H](C)CC` showed an ED50 in the experiment with Mus musculus of 0.47 mg/kg. For the same molecule, the Ki is 35 nM at Mu-type opioid receptor, above 5000 nM in experiment [1] and 4850 nM in experiment [3].
Molecule `CC[C@@H](C)N(C[C@@H](O)[C@@H]1CCC(=O)N1Cc1ccccc1Cl)[C@H](C)CC` gave an ED50 in the experiment with Mus musculus above 100 mg/kg. For the same molecule, the Ki at Mu-type opioid receptor was 390 nM; in experiment [1] it was 550 nM; in experiment [3] it was above 5000 nM.
The molecule `CC[C@@H](C)N(C[C@H](O)[C@H]1CCC(=O)N1Cc1ccccc1Cl)[C@@H](C)CC` displayed an ED50 in the experiment on Mus musculus above 100 mg/kg. In addition, the Ki at Mu-type opioid receptor is above 5000 nM; in experiment [4], “Not Active”; in experiment [3] it was 198 nM.
As for `CC[C@H](C)N(C[C@@H](O)[C@H]1CCC(=O)N1Cc1ccccc1Cl)[C@@H](C)CC`, in the experiment on Mus musculus, the median effective dose (ED50) was above 100 mg/kg. Besides, the Ki was above 5000 nM at Mu-type opioid receptor, “Not Active” in experiment [4] and “Not Active” in experiment [2].
As to `CC[C@@H](C)N(C[C@@H](O)[C@@H]1CCC(=O)N1Cc1ccccc1Cl)[C@@H](C)CC`, the ED50 in the experiment on Mus musculus is above 100 mg/kg. In addition, the Ki on Mu-type opioid receptor is 340 nM; in experiment [1], above 5000 nM; in experiment [3], 3650 nM.
For `CN1CC[C@]23c4c5ccc(O)c4O[C@H]2[C@@H](O)C=C[C@H]3[C@H]1C5` [MORPHINE], the median effective dose (ED50) with Mus musculus is 4.6 mg/kg.
